PubChem BioAssay AID248 (DTP/NCI, 2004)
Toxic doses and inconclusive results are not listed.

Test system: L1210 leukemia ip in BDF1 mice, survival T/C
Assay: NCI In Vivo Anticancer Drug Screen. Data for tumor model L1210 Leukemia (intraperitoneal) in B6D2F1 (BDF1) mice
Settings: endpoint: mean survival time, higher = longer survival
Summary of the method: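 Antitumor effect is assessed in tumor-bearing animals. Survival in the compound arm is compared with a vehicle-dosed control arm and expressed as their quotient.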

[1] = dose: 100.0 mg/kg/injection, schedule: Q01DX001 (ip), vehicle: saline
[2] = dose: 200.0 mg/kg/injection, schedule: Q01DX001 (ip), vehicle: saline
[3] = dose: 50.0 mg/kg/injection, schedule: Q01DX009 (ip), vehicle: saline with Tween-80
[4] = dose: 100.0 mg/kg/injection, schedule: Q01DX009 (ip), vehicle: saline with Tween-80
[5] = dose: 200.0 mg/kg/injection, schedule: Q01DX009 (ip), vehicle: saline with Tween-80
[6] = dose: 100.0 mg/kg/injection, schedule: Q04DX003 (ip), vehicle: Klucel (hydroxypropylcellulose) (HPC)
[7] = dose: 200.0 mg/kg/injection, schedule: Q04DX003 (ip), vehicle: Klucel (hydroxypropylcellulose) (HPC)
[8] = dose: 400.0 mg/kg/injection, schedule: Q04DX003 (ip), vehicle: Klucel (hydroxypropylcellulose) (HPC)
[9] = dose: 100.0 mg/kg/injection, schedule: Q04DX002 (ip), vehicle: Klucel (hydroxypropylcellulose) (HPC)
[10] = dose: 200.0 mg/kg/injection, schedule: Q04DX002 (ip), vehicle: Klucel (hydroxypropylcellulose) (HPC)
[11] = dose: 100.0 mg/kg/injection, schedule: Q01DX009 (ip), vehicle: Klucel (hydroxypropylcellulose) (HPC)
[12] = dose: 200.0 mg/kg/injection, schedule: Q01DX009 (ip), vehicle: Klucel (hydroxypropylcellulose) (HPC)
[13] = dose: 50.0 mg/kg/injection, schedule: Q01DX001 (ip), vehicle: carboxymethylcellulose (CMC)
[14] = dose: 100.0 mg/kg/injection, schedule: Q01DX001 (ip), vehicle: carboxymethylcellulose (CMC)
[15] = dose: 200.0 mg/kg/injection, schedule: Q01DX001 (ip), vehicle: carboxymethylcellulose (CMC)
[16] = dose: 400.0 mg/kg/injection, schedule: Q01DX001 (ip), vehicle: saline

CNCCc1ccccc1
T/C [1]: 107 % of control
T/C [2]: 108 % of control

CC(C)C(=O)c1ccccc1C(=O)O
T/C [3]: 93 % of control
T/C [4]: 93 % of control
T/C [5]: 93 % of control

CCOCCOCCOC(C)Oc1ccc(Br)cc1 (centres undefined)
T/C (dose: 100.0 mg/kg/injection, schedule: Q04DX002 (ip), vehicle: saline): 103 % of control
T/C (dose: 200.0 mg/kg/injection, schedule: Q04DX002 (ip), vehicle: saline): 103 % of control
T/C (dose: 400.0 mg/kg/injection, schedule: Q04DX002 (ip), vehicle: saline): 100 % of control

CCCCCCCCCCCCCCCCc1c(C)ncn(C)c1=O
T/C [6]: 98 % of control
T/C [7]: 101 % of control
T/C [8]: 95 % of control

Cc1cccc(-c2nnc(C(Cl)(Cl)Cl)o2)c1
T/C [6]: 106 % of control
T/C [7]: 97 % of control
T/C [8]: 97 % of control

O=C1c2ccccc2C(=O)N1CNc1ccc(Oc2ccc(Cl)cc2)cc1
T/C [4]: 93 % of control
T/C [5]: 93 % of control

CCCCN1C(=O)C2C3CCC(O3)C2C1=O (centres undefined)
T/C [9]: 98 % of control
T/C [10]: 103 % of control

Cc1ccc(NC(=O)c2c(Cl)c(Cl)c(Cl)c(Cl)c2C(=O)O)cc1Cl
T/C [11]: 100 % of control
T/C [6]: 103 % of control
T/C [12]: 98 % of control
T/C [7]: 102 % of control
T/C [8]: 96 % of control

CS/C(N)=N\N=C\c1ccccn1
T/C (dose: 12.5 mg/kg/injection, schedule: Q01DX001 (ip), vehicle: carboxymethylcellulose (CMC)): 104 % of control
T/C (dose: 25.0 mg/kg/injection, schedule: Q01DX001 (ip), vehicle: carboxymethylcellulose (CMC)): 103 % of control

CCOC(=O)/C=C(\C#N)CC(=O)OCC
T/C (dose: 50.0 mg/kg/injection, schedule: Q01DX005 (ip), vehicle: saline): 102 % of control
T/C (dose: 100.0 mg/kg/injection, schedule: Q01DX005 (ip), vehicle: saline): 102 % of control
T/C (dose: 200.0 mg/kg/injection, schedule: Q01DX005 (ip), vehicle: saline): 96 % of control
T/C (dose: 400.0 mg/kg/injection, schedule: Q01DX005 (ip), vehicle: saline): 94 % of control

C=C1CCC2CCCN2C1=O (centres undefined)
T/C (dose: 25.0 mg/kg/injection, schedule: Q01DX001 (ip), vehicle: saline): 94 % of control
T/C (dose: 50.0 mg/kg/injection, schedule: Q01DX001 (ip), vehicle: saline): 97 % of control
T/C [1]: 108 % of control
T/C [2]: 87 % of control

CCCCOB(/C=C/Sc1ccccc1)OCCCC
T/C (dose: 100.0 mg/kg/injection, schedule: Q01DX009 (ip), vehicle: saline sonified): 89 % of control
T/C (dose: 100.0 mg/kg/injection, schedule: Q04DX003 (ip), vehicle: saline sonified): 101 % of control
T/C (dose: 200.0 mg/kg/injection, schedule: Q01DX009 (ip), vehicle: saline sonified): 87 % of control
T/C (dose: 200.0 mg/kg/injection, schedule: Q04DX003 (ip), vehicle: saline sonified): 103 % of control
T/C (dose: 400.0 mg/kg/injection, schedule: Q01DX009 (ip), vehicle: saline sonified): 100 % of control
T/C (dose: 400.0 mg/kg/injection, schedule: Q04DX003 (ip), vehicle: saline sonified): 95 % of control

O=P1(Nc2ccccc2)OCCCN1Cc1ccccc1Cl (centres undefined)
T/C [13]: 98 % of control
T/C [14]: 98 % of control
T/C [15]: 98 % of control
T/C (dose: 400.0 mg/kg/injection, schedule: Q01DX001 (ip), vehicle: carboxymethylcellulose (CMC)): 93 % of control

CC1=CC(=N/S(=O)(=O)c2ccccc2)/C2CC(C)=C(C)CC2/C1=N\S(=O)(=O)c1ccccc1 (centres undefined)
T/C [11]: 95 % of control
T/C [6]: 95 % of control
T/C [12]: 104 % of control
T/C [7]: 92 % of control
T/C (dose: 400.0 mg/kg/injection, schedule: Q01DX009 (ip), vehicle: Klucel (hydroxypropylcellulose) (HPC)): 103 % of control

CC1(C)/C(=C\C(=O)O)C2CCC1C2 (centres undefined)
T/C [1]: 103 % of control
T/C (dose: 100.0 mg/kg/injection, schedule: Q01DX009 (ip), vehicle: saline): 91 % of control
T/C (dose: 100.0 mg/kg/injection, schedule: Q04DX003 (ip), vehicle: acetone): 106 % of control
T/C [2]: 97 % of control
T/C (dose: 200.0 mg/kg/injection, schedule: Q01DX009 (ip), vehicle: saline): 90 % of control
T/C (dose: 200.0 mg/kg/injection, schedule: Q04DX003 (ip), vehicle: acetone): 93 % of control
T/C [16]: 105 % of control
T/C (dose: 400.0 mg/kg/injection, schedule: Q01DX009 (ip), vehicle: saline): 98 % of control
T/C (dose: 400.0 mg/kg/injection, schedule: Q04DX003 (ip), vehicle: acetone): 89 % of control

COc1ccc(OC)c(NC(=O)Oc2cc(C)c(Cl)c(C)c2)c1
T/C (dose: 100.0 mg/kg/injection, schedule: Q04DX002 (ip), vehicle: saline with Tween-80): 93 % of control
T/C (dose: 200.0 mg/kg/injection, schedule: Q04DX002 (ip), vehicle: saline with Tween-80): 96 % of control
T/C (dose: 400.0 mg/kg/injection, schedule: Q04DX002 (ip), vehicle: saline with Tween-80): 101 % of control

C[N+](C)(C)N=C1CCC2(CC1)c1ccccc1-c1ccccc12
T/C (dose: 12.5 mg/kg/injection, schedule: Q01DX009 (ip), vehicle: saline): 95 % of control
T/C (dose: 12.5 mg/kg/injection, schedule: Q04DX003 (ip), vehicle: saline): 103 % of control
T/C (dose: 25.0 mg/kg/injection, schedule: Q01DX009 (ip), vehicle: saline): 93 % of control
T/C (dose: 25.0 mg/kg/injection, schedule: Q04DX003 (ip), vehicle: saline): 100 % of control
T/C (dose: 50.0 mg/kg/injection, schedule: Q04DX003 (ip), vehicle: saline): 95 % of control

O=NN(CCCl)C(=O)Nc1ccc(NC(=O)N(CCCl)N=O)cc1
T/C [1]: 201 % of control
T/C [2]: 182 % of control
T/C (dose: 300.0 mg/kg/injection, schedule: Q01DX001 (ip), vehicle: saline): 230 % of control
T/C [16]: 264 % of control
T/C (dose: 500.0 mg/kg/injection, schedule: Q01DX001 (ip), vehicle: saline): 285 % of control
T/C (dose: 600.0 mg/kg/injection, schedule: Q01DX001 (ip), vehicle: saline): 300 % of control
T/C (dose: 800.0 mg/kg/injection, schedule: Q01DX001 (ip), vehicle: saline): 291 % of control
T/C (dose: 1000.0 mg/kg/injection, schedule: Q01DX001 (ip), vehicle: saline): 268 % of control

CN=C(N)N(C)/N=C/c1ccccc1
T/C (dose: 87.5 mg/kg/injection, schedule: Q04DX003 (ip), vehicle: Klucel (hydroxypropylcellulose) (HPC)): 105 % of control

CC(=O)Nc1ccc(SCCCc2c(N)nc(N)nc2N)cc1
T/C [6]: 100 % of control
T/C [7]: 99 % of control
T/C [8]: 97 % of control

O=C(CN1CCOCC1)Nc1ccc(S(=O)(=O)c2ccc(Cl)cc2)cc1
T/C (dose: 100.0 mg/kg/injection, schedule: Q04DX003 (ip), vehicle: saline with Tween-80): 101 % of control
T/C (dose: 200.0 mg/kg/injection, schedule: Q04DX003 (ip), vehicle: saline with Tween-80): 101 % of control
T/C (dose: 400.0 mg/kg/injection, schedule: Q04DX003 (ip), vehicle: saline with Tween-80): 95 % of control

O=C(COc1ccc(Cl)c(Cl)c1)N(Cc1ccccc1)Cc1ccc[n+](Cc2ccc(Cl)cc2S(=O)(=O)F)c1
T/C [9]: 95 % of control
T/C [10]: 95 % of control
T/C (dose: 400.0 mg/kg/injection, schedule: Q04DX002 (ip), vehicle: Klucel (hydroxypropylcellulose) (HPC)): 104 % of control

O=C(N/N=C/c1ccccc1Cl)c1cccc2ccccc12
T/C [1]: 92 % of control
T/C [2]: 101 % of control
T/C [16]: 103 % of control

COc1cccc(CN(C)C)c1C(O)c1ccccc1 (centres undefined)
T/C [13]: 95 % of control
T/C [14]: 97 % of control
T/C [15]: 106 % of control

COc1cccc(C(C)(C)COS(=O)(=O)c2ccc(C)cc2)c1
T/C [3]: 90 % of control
T/C [4]: 90 % of control

Oc1[nH]c2ccccc2c1N=Nc1ccccn1
T/C (dose: 100.0 mg/kg/injection, schedule: Q01DX001 (ip), vehicle: other): 93 % of control
T/C (dose: 200.0 mg/kg/injection, schedule: Q01DX001 (ip), vehicle: other): 101 % of control
T/C (dose: 400.0 mg/kg/injection, schedule: Q01DX001 (ip), vehicle: other): 104 % of control
